Results as given in the supplement of paper PMC10307832.

What follows are cell lines tested with Cc1ccc(C(=O)Nc2ccc(CN3CCN(C)CC3)c(C(F)(F)F)c2)cc1C#Cc1cnc2cccnn12 [Ponatinib] + Nc1ncn([C@H]2C[C@H](O)[C@@H](CO)O2)c(=O)n1 [Decitabine] (partner 2 µM) (assay: relative viability (nuclei count vs DMSO), 5 days (fraction); higher = more cells survive). Settings: first compound 0.2 µM.
Outline: (§1)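 Lung cancer cell lines in 1536-well plates got either a single drug or a fixed anchor-drug dose together with five library-drug doses (not always all listed) in √10 steps, by pin tool, on the day after seeding. Nuclei were counted after 5 days, and relative viability is the treated-to-vehicle ratio of nuclei counts. Values are medians of duplicate plates.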
With HCC-15 the relative viability was 0.634.
PC-3 [JPC-3] was tested, and the relative viability was 0.838.
EKVX was tested, and the relative viability was 0.357.
LC-2-ad was tested, and the relative viability was 0.582.
In the case of NCI-H1975, the relative viability is reported as 0.437.
SK-LU-1 showed a relative viability of 0.555.
For NCI-H661, the relative viability was 0.515.
RERF-LC-KJ gave a relative viability of 0.665.

What follows are cell lines tested with Cc1ccc(C(=O)Nc2ccc(CN3CCN(C)CC3)c(C(F)(F)F)c2)cc1C#Cc1cnc2cccnn12 [Ponatinib] + CC(C)C[C@H](NC(=O)[C@H](Cc1ccccc1)NC(=O)c1cnccn1)B(O)O [Bortezomib] (partner 0.002 µM) in the same assay as above. Settings: first compound 0.002 µM.
Outline: as §1
With NCI-H650 the relative viability was 0.536.
NCI-H1651 was tested, and the relative viability was 0.936.
EPLC-272H showed a relative viability of 0.76.
For NCI-H1792, the relative viability was 0.918.
NCI-H1355 showed a relative viability of 1.09.
With NCI-H322M the relative viability was 1.19.
In the case of NCI-H1437, the relative viability is reported as 0.572.
For NCI-H1755, the relative viability was 0.953.
NCI-H2023 was tested, and the relative viability was 0.957.
HCC-15 was tested, and the relative viability was 0.919.
For PC-3 [JPC-3], the relative viability was 0.826.
EKVX was tested, and the relative viability was 1.01.
Cell Line LC-2-ad has a relative viability of 0.964.
Work on NCI-H1975 yielded a relative viability of 0.353.
SK-LU-1 showed a relative viability of 1.01.
Cell Line NCI-H661 has a relative viability of 0.714.
For RERF-LC-KJ, the relative viability was 1.06.

Same assay, conditions: first compound 0.006325 µM
NCI-H650 gave a relative viability of 0.695.
With NCI-H1651 the relative viability was 0.869.
EPLC-272H showed a relative viability of 0.894.
Work on NCI-H1792 yielded a relative viability of 0.942.
Work on NCI-H1355 yielded a relative viability of 1.11.
In the case of NCI-H322M, the relative viability is reported as 1.27.
Cell Line NCI-H1437 has a relative viability of 0.681.
For NCI-H1755, the relative viability was 0.99.
NCI-H2023 was tested, and the relative viability was 0.982.
With HCC-15 the relative viability was 1.04.
Work on PC-3 [JPC-3] yielded a relative viability of 0.812.
For EKVX, the relative viability was 1.11.
With LC-2-ad the relative viability was 1.01.
In the case of NCI-H1975, the relative viability is reported as 0.296.
For SK-LU-1, the relative viability was 1.01.
NCI-H661 showed a relative viability of 0.88.
With RERF-LC-KJ the relative viability was 0.988.

Same assay, conditions: first compound 0.06325 µM
For NCI-H650, the relative viability was 0.575.
Cell Line NCI-H1651 has a relative viability of 0.975.
Cell Line EPLC-272H has a relative viability of 0.856.
With NCI-H1792 the relative viability was 1.14.
Work on NCI-H1355 yielded a relative viability of 1.25.
NCI-H322M gave a relative viability of 1.44.
Cell Line NCI-H1437 has a relative viability of 0.608.
NCI-H1755 gave a relative viability of 0.98.
Work on NCI-H2023 yielded a relative viability of 1.17.
With HCC-15 the relative viability was 1.16.
For PC-3 [JPC-3], the relative viability was 0.961.
With EKVX the relative viability was 1.13.
Cell Line LC-2-ad has a relative viability of 0.911.
In the case of NCI-H1975, the relative viability is reported as 0.338.
SK-LU-1 was tested, and the relative viability was 0.949.
In the case of NCI-H661, the relative viability is reported as 0.962.
In the case of RERF-LC-KJ, the relative viability is reported as 1.2.

Same assay, conditions: first compound 0.2 µM
Work on NCI-H650 yielded a relative viability of 0.703.
NCI-H1651 gave a relative viability of 0.983.
In the case of EPLC-272H, the relative viability is reported as 0.88.
NCI-H1792 gave a relative viability of 0.854.
NCI-H1355 showed a relative viability of 1.19.
NCI-H322M was tested, and the relative viability was 1.21.
Cell Line NCI-H1437 has a relative viability of 0.66.
Cell Line NCI-H1755 has a relative viability of 1.01.
NCI-H2023 gave a relative viability of 0.764.
Work on HCC-15 yielded a relative viability of 1.
Cell Line PC-3 [JPC-3] has a relative viability of 0.815.
EKVX was tested, and the relative viability was 1.02.
